Assay results reported in PubChem BioAssay (NCI).
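Method: 48-hour compound exposure of cells in 96-well plates, five concentrations, linear interpolation of endpoints. GI50 marks 50% less growth. TGI: total growth inhibition.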

Key:
Assay in all cases: NCI tumour cell line growth inhibition, 48 h
[1] = test system: 786-0 renal
[2] = test system: A498 renal
[3] = test system: A549 NSCLC
[4] = test system: ACHN renal
[5] = test system: BT-549 breast
[6] = test system: CAKI-1 renal
[7] = test system: CCRF-CEM leukemia
[8] = test system: COLO 205 colon
[9] = test system: DU-145 prostate
[10] = test system: EKVX NSCLC
[11] = test system: HCC-2998 colon
[12] = test system: HCT-116 colon
[13] = test system: HCT-15 colon
[14] = test system: HL-60(TB) leukemia
[15] = test system: HOP-62 NSCLC
[16] = test system: HOP-92 NSCLC
[17] = test system: HS 578T breast
[18] = test system: HT29 colon
[19] = test system: IGROV1 ovarian
[20] = test system: K-562 leukemia
[21] = test system: KM12 colon
[22] = test system: LOX IMVI melanoma
[23] = test system: M14 melanoma
[24] = test system: MALME-3M melanoma
[25] = test system: MCF7 breast
[26] = test system: MDA-MB-231 breast
[27] = test system: MDA-MB-435
[28] = test system: MOLT-4 leukemia
[29] = test system: NCI-H226 lung
[30] = test system: NCI-H23 lung
[31] = test system: NCI-H460 lung
[32] = test system: NCI-H522 lung
[33] = test system: NCI/ADR-RES ovarian
[34] = test system: OVCAR-3 ovarian
[35] = test system: OVCAR-4 ovarian
[36] = test system: OVCAR-5 ovarian
[37] = test system: OVCAR-8 ovarian
[38] = test system: PC-3 prostate
[39] = test system: RPMI-8226 leukemia
[40] = test system: RXF 393 renal
[41] = test system: SF-268 CNS
[42] = test system: SF-295 CNS
[43] = test system: SF-539 CNS
[44] = test system: SK-MEL-2 melanoma
[45] = test system: SK-MEL-28 melanoma
[46] = test system: SK-MEL-5 melanoma
[47] = test system: SK-OV-3 ovarian
[48] = test system: SN12C renal
[49] = test system: SNB-19 CNS
[50] = test system: SNB-75 CNS
[51] = test system: SR leukemia
[52] = test system: SW-620 colon
[53] = test system: T-47D breast
[54] = test system: TK-10 renal
[55] = test system: U251 CNS
[56] = test system: UACC-257 melanoma
[57] = test system: UACC-62 melanoma

CC(C)c1[nH]nc2c(NCc3ccc(-c4ccccn4)cc3)nc(SCCN(C)C)nc12
GI50 [1]: 0.0767 µM
TGI [1]: 6.06 µM
GI50 [2]: 0.0563 µM
TGI [2]: 0.164 µM
TGI [3]: 13 µM
GI50 [4]: 0.0864 µM
TGI [4]: 4.96 µM
GI50 [5]: 0.0194 µM
TGI [5]: 0.217 µM
GI50 [6]: 0.37 µM
TGI [6]: 19.4 µM
GI50 [7]: 0.0246 µM
TGI [7]: 4.87 µM
GI50 [8]: < 0.015 µM
TGI [8]: 0.0297 µM
GI50 [9]: 0.138 µM
TGI [9]: 12.4 µM
GI50 [10]: 0.0494 µM
TGI [10]: 2.54 µM
GI50 [11]: < 0.0185 µM
TGI [11]: 0.844 µM
GI50 [12]: 0.0357 µM
TGI [12]: 10.8 µM
GI50 [13]: 0.0872 µM
TGI [13]: 10.9 µM
GI50 [14]: < 0.0156 µM
TGI [14]: 0.0313 µM
GI50 [15]: < 0.0177 µM
TGI [15]: 0.236 µM
GI50 [16]: 0.0585 µM
TGI [16]: 0.468 µM
GI50 [17]: 0.0271 µM
TGI [17]: 9.4 µM
GI50 [18]: < 0.0158 µM
TGI [18]: 1.21 µM
GI50 [19]: 0.0579 µM
TGI [19]: 13.7 µM
GI50 [20]: < 0.021 µM
TGI [20]: 10.3 µM
GI50 [21]: < 0.0159 µM
TGI [21]: 6.07 µM
GI50 [22]: 0.123 µM
TGI [22]: 11.1 µM
GI50 [23]: < 0.0133 µM
TGI [23]: 0.122 µM
GI50 [24]: 0.0986 µM
TGI [24]: 0.642 µM
GI50 [25]: < 0.0218 µM
TGI [25]: 10.5 µM
GI50 [26]: 0.0257 µM
TGI [26]: 8.3 µM
GI50 [27]: < 0.0176 µM
TGI [27]: 0.797 µM
GI50 [28]: < 0.0178 µM
TGI [28]: 0.202 µM
GI50 [29]: 0.24 µM
TGI [29]: 0.706 µM
GI50 [30]: 0.0646 µM
TGI [30]: 0.598 µM
GI50 [31]: 0.112 µM
TGI [31]: 11.7 µM
GI50 [32]: < 0.015 µM
TGI [32]: < 0.0232 µM
GI50 [33]: 0.13 µM
TGI [33]: 11.4 µM
GI50 [34]: 0.0754 µM
TGI [34]: 10.9 µM
GI50 [35]: 0.0349 µM
TGI [35]: 1.53 µM
GI50 [36]: 0.0572 µM
TGI [36]: 11.2 µM
GI50 [37]: 0.0416 µM
TGI [37]: 15.5 µM
GI50 [38]: 0.0313 µM
TGI [38]: 3.81 µM
GI50 [39]: 0.0195 µM
TGI [39]: 0.101 µM
GI50 [40]: < 0.0136 µM
TGI [40]: 0.0354 µM
GI50 [41]: < 0.018 µM
TGI [41]: 3.68 µM
GI50 [42]: 0.0799 µM
TGI [42]: 1.92 µM
GI50 [43]: 0.0745 µM
TGI [43]: 0.242 µM
GI50 [44]: 0.0798 µM
TGI [44]: 0.269 µM
GI50 [45]: 0.0226 µM
TGI [45]: 0.21 µM
GI50 [46]: 0.153 µM
TGI [46]: 0.552 µM
GI50 [47]: 0.106 µM
TGI [47]: 11.5 µM
GI50 [48]: < 0.0199 µM
TGI [48]: 12.3 µM
GI50 [49]: 0.0244 µM
TGI [49]: 12.6 µM
GI50 [50]: 0.0223 µM
TGI [50]: 0.138 µM
GI50 [51]: < 0.0294 µM
TGI [51]: 3.21 µM
GI50 [52]: < 0.0135 µM
TGI [52]: 12.1 µM
GI50 [53]: 0.0319 µM
TGI [53]: 2.69 µM
GI50 [54]: 0.0456 µM
TGI [54]: 11.9 µM
GI50 [55]: 0.0474 µM
TGI [55]: 10.7 µM
GI50 [56]: 0.017 µM
TGI [56]: 0.0826 µM
GI50 [57]: 0.0427 µM
TGI [57]: 0.4 µM
